Measurements as given in patent US5849755A, “3-amidochromanylsulfonyl(thio)ureas, processes for their preparation, their use, and pharmaceutical preparations comprising them” (Hoechst Aktiengesellschaft, priority 1996, dated 1998).

Columns and labels:
[1] = tested on: papillary muscle of the guinea pig; test: Test 1: Duration of the action potential of the papillary muscle of the guinea pig (APD95, shortened by HOE 234); type: cell-based; conditions: HOE 234 1 μg/ml in bath, 30 minutes after addition, mean of n = 3, control with HOE 234 alone <40
Description: Test 1: Duration of the action potential of the papillary muscle of the guinea pig
ATP deficiency states such as are observed in the cardiac muscle cell during ischemia lead to a shortening of the duration of the action potential. They are regarded as one of the causes of so-called "re-entry arrhythmias," which can cause sudden cardiac death. The opening of ATP-sensitive potassium channels as a result of the fall in ATP is regarded as the cause of this.
A standard microelectrode technique was employed to measure the action potential. For this, guinea pigs of both sexes were sacrificed by a blow to the head, the hearts were removed and the papillary muscles were separated out and suspended in an organ bath. The organ bath was flushed with Ringer's solution (0.9% NaCl, 0.048% KCl, 0.024% CaCl2, 0.02% NaHCO3 and 0.1% glucose) and gassed with a mixture of 95% oxygen and 5% carbon dioxide at a temperature of 36° C. The muscle was stimulated via an electrode with rectangular pulses of 1 V and 1 ms duration and a frequency of 2 Hz. The action potential was derived through a glass microelectrode which was inserted intracellularly and filled with 3M KCl solution, and recorded. The substances to be tested were added to the Ringer's solution in a concentration of 2×10^-6 mol per liter or 2×10^-5 mol per liter. The action potential was amplified with a Hugo Sachs amplifier and shown on an oscilloscope. The duration of the action potential in milliseconds (ms) was determined at a degree of repolarization of 95% (APD95). Shortenings of the action potential were induced by addition of a solution of the potassium channel opener HOE 234 (Rilmakalim) (W. Linz, E. Klaus, U. Albus, R. H. A. Becker, D. Mania, H. C. Englert, B. A. Scholkens, Arzneimittelforschung/Drug Research, Volume 42 (II), 1992, 1180-1185), a concentration of HOE 234 in the bath solution of 1 μg/ml being established. The test substances were added to the bath solution as stock solutions in propanediol. The values stated are based on measurements 30 minutes after the addition. As a control, the APD95 value was determined in the presence of HOE 234 and in the absence of the test substance.
The measurement values (mean values from n experiments) are followed by the corresponding blank values in parentheses. The blank values are the APD95 values which were measured at the start of the experiment without HOE 234 and test substance in the Ringer's solution. The values obtained show the normalizing effect of the compounds according to the invention on a shortened duration of the action potential.

[2] = tested on: RINm5F cells; test: Test 2: Membrane potential on isolated β cells (RINm5F, whole cell patch clamp); type: cell-based; conditions: diazoxide 100 μmol/l in bath, 34°±1° C.
Description: Test 2: Membrane potential on isolated β cells The action mechanism of hypoglycemic sulfonylureas is understood in principle. The β cells of the pancreas are the target organ of sulfonylureas, where they bring about a release of the hypoglycemic hormone insulin by influencing the electrical potential of the cell membrane. A hypoglycemic sulfonylurea, for example glibenclamide, has the effect of depolarizing the cell membrane, which leads to an increased inflow of calcium ions and, as a consequence thereof, to the release of insulin. The extent AU of this depolarization of the cell membrane caused by the substances according to the invention was determined on insulin-secreting RINm5F cells, a pancreas tumor cell line. The activity of a compound in this model predicts the extent of the hypoglycemic potential of this compound. Cell cultures of RINm5F cells: RINm5F cells were cultured at 37° C. in RPMI 1640 culture medium (Flow) to which 11 mM glucose, 10% (volume/volume) fetal calf serum, 2 mM glutamine and 50 μg/ml of gentamycin were added. The cells were sown on Petri dishes every 2 to 3 days and kept at a temperature of 37° C. in a moistened atmosphere of […] and 5% CO2. For the investigations, the cells were isolated by incubation (about 3 minutes) in a Ca^2+ -free medium which comprised 0.25% trypsin. Measurement method: Isolated RINm5F cells were introduced into a Plexiglas chamber on an inverse microscope which was equipped with a differential interference contrast lens. Under visual control (400-fold magnification),a fire-polished micropipette with an opening diameter of about 1 μm was placed on the cell with the aid of a micromanipulator. By applying a slight reduced pressure to the inside of the patch pipette, a high electrical seal was initially established between the glass and the cell membrane. By increasing the reduced pressure, the membrane patch under the […] pipette was then broken open. In this whole cell configuration,the cell potential was recorded with the aid of a patch clamp amplifier (L/M EPC 7, List, Darmstadt) and the whole cell current was measured by applying a voltage ramp. […] Stock solutions (concentration 100 mmol/l) of the test substances in dimethyl sulfoxide (DMSO) and corresponding dilutions in NaCl solution were prepared. DMSO alone had no effect on the cell potential. To stabilize the cell potential, diazoxide (100 μmol/l), an opener of ATP-sensitive K^+ channels, was added to the bath solution in all experiments. All experiments were carried out at 34°±1° C. The following values ΔU (changes in the cell potentials caused by the addition of the test substances) were measured. The control values in parentheses are the cell potentials U before the addition of the test substances. For comparison the values obtained in this test with glibenclamide, a typical hypoglycemic benzenesulfonylurea, are given.

Row | SMILES | APD95 -HOE 234 ([1]; test substance 2 μmol/l) [ms] | ΔU (mV), change in the cell potential caused by the addition of the test substance ([2]; 1 μmol/l) [mV] | ΔU (mV), change in the cell potential caused by the addition of the test substance ([2]; 10 μmol/l) [mV] | APD95 -HOE 234 ([1]; test substance 20 μmol/l) [ms]
1 | COc1ccc(F)cc1C(=O)NC1Cc2cc(S(=O)(=O)NC(=S)NC(C)C)c(OC)cc2OC1(C)C (stereo not shown) [Example 21, 3-(5-Fluoro-2-methoxybenzamido)-2,2-dimethyl-6-(isopropylaminothiocarbonylaminosulfonyl)-7-methoxychroman] | 67 ± 10 | – | – | –
2 | COc1ccc(Cl)cc1C(=O)NCCc1ccc(S(=O)(=O)NC(=O)NC2CCCCC2)cc1 [Glibenclamide, glibenclamide, reference compound] | – | 47 | 46 | –
3 | CNC(=S)NS(=O)(=O)c1cc2c(cc1OC)OCC(NC(=O)c1cc(Cl)ccc1OC)C2 (stereo not shown) [Example 6] | 145 ± 19.1 | 3 | – | –
4 | CCCNC(=O)NS(=O)(=O)c1cc2c(cc1OC)OCC(NC(=O)c1cc(Cl)ccc1OC)C2 (stereo not shown) [Example 3, 3-(5-Chloro-2-methoxybenzamido)-6-(n-propylamino-carbonylaminosulfonyl)-7-methoxychroman] | – | 18 | 23 | 134 ± 9
5 | CCNC(=S)NS(=O)(=O)c1cc2c(cc1OC)OCC(NC(=O)c1cc(Cl)ccc1OC)C2 (stereo not shown) [Example 7, 3-(5-Chloro-2-methoxybenzamido)-6-(ethylaminothiocarbonylaminosulfonyl)-7-methoxychroman] | 130 ± 28.1 | 29 | – | –
6 | CNC(=O)NS(=O)(=O)c1cc2c(cc1OC)OCC(NC(=O)c1cc(Cl)ccc1OC)C2 (stereo not shown) [Example 1, 3-(5-Chloro-2-methoxybenzamido)-6-(methylaminocarbonylaminosulfonyl)-7-methoxychroman] | – | 6 | 24 | 157 ± 36
